Legend:
Conditions in all cases: Compound concentration 1000.0 nM
[1] = target: Serine/threonine-protein kinase PLK2 (Homo sapiens) (UniProt Q9NYY3)
[2] = target: Tyrosine-protein kinase Mer (Homo sapiens) (UniProt Q12866)
[3] = target: Non-receptor tyrosine-protein kinase TYK2 (Homo sapiens) (UniProt P29597)
[4] = target: Calcium/calmodulin-dependent protein kinase type II subunit delta (Homo sapiens) (UniProt Q13557)
[5] = target: Phosphorylase b kinase gamma catalytic chain, skeletal muscle/heart isoform (Homo sapiens) (UniProt Q16816)
[6] = target: Phosphatidylinositol 4,5-bisphosphate 3-kinase catalytic subunit alpha isoform (Homo sapiens) (UniProt P42336)
Phosphatidylinositol 4,5-bisphosphate 3-kinase catalytic subunit alpha isoform (Homo sapiens), sequence (P42336 whole entry, canonical isoform): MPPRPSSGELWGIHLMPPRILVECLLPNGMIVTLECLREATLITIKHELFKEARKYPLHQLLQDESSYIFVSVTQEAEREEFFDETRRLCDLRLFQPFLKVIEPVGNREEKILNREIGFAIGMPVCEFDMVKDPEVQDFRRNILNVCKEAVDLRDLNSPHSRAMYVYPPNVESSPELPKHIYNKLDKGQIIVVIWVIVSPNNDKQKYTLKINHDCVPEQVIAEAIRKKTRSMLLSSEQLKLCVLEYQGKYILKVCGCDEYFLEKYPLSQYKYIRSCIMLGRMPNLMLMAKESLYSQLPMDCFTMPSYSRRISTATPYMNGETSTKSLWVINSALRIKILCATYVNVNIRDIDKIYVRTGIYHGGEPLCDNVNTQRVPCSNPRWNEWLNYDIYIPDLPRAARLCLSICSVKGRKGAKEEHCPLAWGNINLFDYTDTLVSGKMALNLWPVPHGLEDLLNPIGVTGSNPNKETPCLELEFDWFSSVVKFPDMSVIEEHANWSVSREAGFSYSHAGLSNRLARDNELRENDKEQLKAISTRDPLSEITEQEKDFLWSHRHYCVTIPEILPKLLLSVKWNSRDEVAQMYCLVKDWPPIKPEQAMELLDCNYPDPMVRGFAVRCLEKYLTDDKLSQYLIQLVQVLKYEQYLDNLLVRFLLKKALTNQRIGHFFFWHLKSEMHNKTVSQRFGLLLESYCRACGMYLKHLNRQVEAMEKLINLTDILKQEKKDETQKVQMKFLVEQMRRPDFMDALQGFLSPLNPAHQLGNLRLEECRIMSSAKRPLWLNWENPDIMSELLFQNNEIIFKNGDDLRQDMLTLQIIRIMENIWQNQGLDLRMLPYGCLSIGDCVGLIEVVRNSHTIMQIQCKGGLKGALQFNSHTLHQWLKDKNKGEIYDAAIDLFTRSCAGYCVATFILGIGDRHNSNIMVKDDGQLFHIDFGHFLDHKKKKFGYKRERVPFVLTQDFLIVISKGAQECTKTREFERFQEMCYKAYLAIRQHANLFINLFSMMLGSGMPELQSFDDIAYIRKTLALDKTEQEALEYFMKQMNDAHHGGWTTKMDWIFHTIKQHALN

[7] = target: Tyrosine-protein kinase JAK1 (Homo sapiens) (UniProt P23458)
[8] = target: BMP-2-inducible protein kinase (Homo sapiens) (UniProt Q9NSY1)
[9] = target: Dual specificity protein kinase CLK1 (Homo sapiens) (UniProt P49759)
Dual specificity protein kinase CLK1 (Homo sapiens), sequence (P49759 whole entry, looked up): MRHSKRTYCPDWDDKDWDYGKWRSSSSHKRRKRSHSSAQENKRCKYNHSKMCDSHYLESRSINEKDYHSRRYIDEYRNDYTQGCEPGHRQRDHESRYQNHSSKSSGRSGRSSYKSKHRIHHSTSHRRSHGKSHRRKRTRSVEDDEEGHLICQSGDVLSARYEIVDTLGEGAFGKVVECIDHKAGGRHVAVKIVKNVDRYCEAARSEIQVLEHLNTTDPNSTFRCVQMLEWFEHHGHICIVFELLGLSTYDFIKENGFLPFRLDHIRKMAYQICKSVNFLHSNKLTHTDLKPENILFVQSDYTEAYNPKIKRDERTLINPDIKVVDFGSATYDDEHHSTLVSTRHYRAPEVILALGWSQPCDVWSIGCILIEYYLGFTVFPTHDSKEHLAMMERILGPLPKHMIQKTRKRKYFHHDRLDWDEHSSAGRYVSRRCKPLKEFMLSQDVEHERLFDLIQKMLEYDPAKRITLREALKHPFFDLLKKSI

[10] = target: Serine/threonine-protein kinase PLK1 (Homo sapiens) (UniProt P53350)
Serine/threonine-protein kinase PLK1 (Homo sapiens), sequence (P53350 whole entry, the tested form may be a part): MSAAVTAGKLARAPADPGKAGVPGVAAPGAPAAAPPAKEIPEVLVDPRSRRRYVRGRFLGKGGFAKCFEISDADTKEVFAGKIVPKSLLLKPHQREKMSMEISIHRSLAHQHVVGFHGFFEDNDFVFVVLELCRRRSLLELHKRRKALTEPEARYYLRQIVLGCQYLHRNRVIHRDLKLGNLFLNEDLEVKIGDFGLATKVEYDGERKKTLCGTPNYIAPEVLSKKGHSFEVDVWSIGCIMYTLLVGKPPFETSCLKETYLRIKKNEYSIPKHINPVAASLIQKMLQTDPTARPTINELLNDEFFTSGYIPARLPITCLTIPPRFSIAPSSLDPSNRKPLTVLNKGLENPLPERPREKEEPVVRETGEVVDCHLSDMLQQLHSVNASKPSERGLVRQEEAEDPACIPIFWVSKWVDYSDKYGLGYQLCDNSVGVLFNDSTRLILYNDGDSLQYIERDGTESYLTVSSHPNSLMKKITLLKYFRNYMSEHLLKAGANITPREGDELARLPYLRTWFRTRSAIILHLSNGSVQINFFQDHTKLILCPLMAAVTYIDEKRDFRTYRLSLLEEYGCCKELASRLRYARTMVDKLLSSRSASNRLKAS

[11] = target: LIM domain kinase 1 (Homo sapiens) (UniProt P53667)
[12] = target: Cyclin-dependent kinase 5 (Homo sapiens) (UniProt Q00535)
[13] = target: Dual specificity protein kinase TTK (Homo sapiens) (UniProt P33981)
[14] = target: Mitogen-activated protein kinase 8 (Homo sapiens) (UniProt P45983)
[15] = target: Ribosomal protein S6 kinase alpha-1 (Homo sapiens) (UniProt Q15418)
[16] = target: Serine/threonine-protein kinase DCLK3 (Homo sapiens) (UniProt Q9C098)
[17] = target: Ribosomal protein S6 kinase alpha-5 (Homo sapiens) (UniProt O75582)
Ribosomal protein S6 kinase alpha-5 (Homo sapiens), sequence (O75582 whole entry, looked up): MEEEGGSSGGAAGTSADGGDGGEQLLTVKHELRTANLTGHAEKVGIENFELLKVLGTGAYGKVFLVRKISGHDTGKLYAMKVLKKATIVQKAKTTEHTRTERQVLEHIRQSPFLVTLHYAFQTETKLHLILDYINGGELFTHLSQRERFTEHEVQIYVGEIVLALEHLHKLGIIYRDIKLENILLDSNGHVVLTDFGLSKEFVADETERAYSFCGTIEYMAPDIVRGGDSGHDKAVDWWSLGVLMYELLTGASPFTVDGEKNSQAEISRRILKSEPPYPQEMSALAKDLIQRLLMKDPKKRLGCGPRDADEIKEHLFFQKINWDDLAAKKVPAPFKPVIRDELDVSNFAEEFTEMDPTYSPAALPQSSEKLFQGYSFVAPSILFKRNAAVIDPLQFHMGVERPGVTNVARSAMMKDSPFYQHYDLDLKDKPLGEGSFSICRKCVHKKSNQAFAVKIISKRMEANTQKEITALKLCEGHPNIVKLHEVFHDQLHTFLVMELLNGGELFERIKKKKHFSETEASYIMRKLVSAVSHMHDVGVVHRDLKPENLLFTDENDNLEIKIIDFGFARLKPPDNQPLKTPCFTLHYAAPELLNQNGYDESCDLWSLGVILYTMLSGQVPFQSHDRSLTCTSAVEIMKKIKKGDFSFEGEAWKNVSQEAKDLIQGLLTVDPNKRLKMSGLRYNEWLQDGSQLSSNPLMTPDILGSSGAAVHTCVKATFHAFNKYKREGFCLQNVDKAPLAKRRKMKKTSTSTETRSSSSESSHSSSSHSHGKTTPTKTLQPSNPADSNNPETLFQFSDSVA

[18] = target: RAC-alpha serine/threonine-protein kinase (Homo sapiens) (UniProt P31749)
[19] = tested on: Phosphatidylinositol 4,5-bisphosphate 3-kinase catalytic subunit alpha isoform (Homo sapiens), P42336 [E545K]
Phosphatidylinositol 4,5-bisphosphate 3-kinase catalytic subunit alpha isoform (Homo sapiens), P42336 [E545K], sequence (P42336 whole entry E545K, canonical isoform): as the sequence (P42336 whole entry, canonical isoform) above, with E545K counted along it

[20] = target: SRSF protein kinase 3 (Homo sapiens) (UniProt Q9UPE1)
[21] = target: Ephrin type-A receptor 8 (Homo sapiens) (UniProt P29322)
[22] = target: Phosphatidylinositol 4,5-bisphosphate 3-kinase catalytic subunit beta isoform (Homo sapiens) (UniProt P42338)
[23] = target: Serine/threonine-protein kinase 4 (Homo sapiens) (UniProt Q13043)
[24] = target: Microtubule-associated serine/threonine-protein kinase 1 (Homo sapiens) (UniProt Q9Y2H9)
Microtubule-associated serine/threonine-protein kinase 1 (Homo sapiens), sequence (Q9Y2H9 whole entry, looked up): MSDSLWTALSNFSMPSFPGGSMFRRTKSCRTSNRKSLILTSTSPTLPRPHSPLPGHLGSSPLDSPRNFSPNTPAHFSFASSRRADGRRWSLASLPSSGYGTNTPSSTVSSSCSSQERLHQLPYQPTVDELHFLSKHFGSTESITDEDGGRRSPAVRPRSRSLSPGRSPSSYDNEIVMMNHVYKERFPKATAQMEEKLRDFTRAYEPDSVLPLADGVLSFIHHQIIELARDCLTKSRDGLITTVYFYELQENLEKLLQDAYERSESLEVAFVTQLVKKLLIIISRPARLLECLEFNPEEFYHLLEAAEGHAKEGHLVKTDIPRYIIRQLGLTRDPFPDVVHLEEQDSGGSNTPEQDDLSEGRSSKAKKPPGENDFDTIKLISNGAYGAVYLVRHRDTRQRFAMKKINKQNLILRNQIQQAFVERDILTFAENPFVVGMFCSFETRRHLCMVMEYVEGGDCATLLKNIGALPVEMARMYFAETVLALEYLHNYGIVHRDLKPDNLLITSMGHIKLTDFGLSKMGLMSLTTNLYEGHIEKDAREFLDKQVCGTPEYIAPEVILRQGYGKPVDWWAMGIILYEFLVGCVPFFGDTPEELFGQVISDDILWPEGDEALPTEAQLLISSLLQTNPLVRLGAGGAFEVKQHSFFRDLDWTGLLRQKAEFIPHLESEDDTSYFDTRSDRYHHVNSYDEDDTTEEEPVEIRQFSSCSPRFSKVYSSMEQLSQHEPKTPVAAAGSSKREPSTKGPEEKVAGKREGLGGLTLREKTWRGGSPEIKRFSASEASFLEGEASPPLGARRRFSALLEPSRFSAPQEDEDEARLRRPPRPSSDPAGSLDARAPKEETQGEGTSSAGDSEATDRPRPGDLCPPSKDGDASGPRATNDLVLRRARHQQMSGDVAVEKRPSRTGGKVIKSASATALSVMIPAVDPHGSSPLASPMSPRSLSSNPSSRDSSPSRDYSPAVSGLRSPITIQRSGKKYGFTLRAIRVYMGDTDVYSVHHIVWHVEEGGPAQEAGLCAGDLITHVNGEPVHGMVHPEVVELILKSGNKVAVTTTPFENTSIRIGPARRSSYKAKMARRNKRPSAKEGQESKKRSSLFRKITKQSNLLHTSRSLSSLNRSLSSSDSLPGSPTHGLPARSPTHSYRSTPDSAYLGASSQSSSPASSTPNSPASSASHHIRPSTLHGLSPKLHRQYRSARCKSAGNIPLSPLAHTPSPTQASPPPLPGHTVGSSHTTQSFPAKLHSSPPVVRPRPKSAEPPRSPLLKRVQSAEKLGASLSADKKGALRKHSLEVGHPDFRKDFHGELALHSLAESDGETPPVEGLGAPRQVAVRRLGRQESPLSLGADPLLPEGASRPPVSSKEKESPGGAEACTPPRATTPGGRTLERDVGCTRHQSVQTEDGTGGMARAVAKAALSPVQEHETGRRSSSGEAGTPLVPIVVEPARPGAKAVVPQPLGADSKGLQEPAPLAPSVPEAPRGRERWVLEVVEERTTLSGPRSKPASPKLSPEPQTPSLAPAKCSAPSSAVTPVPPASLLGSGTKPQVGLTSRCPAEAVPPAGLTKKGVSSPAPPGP

[25] = target: BDNF/NT-3 growth factors receptor (Homo sapiens) (UniProt Q16620)
[26] = target: Homeodomain-interacting protein kinase 1 (Homo sapiens) (UniProt Q86Z02)
[27] = target: Phosphorylase b kinase regulatory subunit alpha, liver isoform (Homo sapiens) (UniProt P46019)
[28] = target: Serine/threonine-protein kinase B-raf (Homo sapiens) (UniProt P15056)
[29] = tested on: Epidermal growth factor receptor (Homo sapiens), P00533 [UNDEFINED MUTATION]
[30] = target: Dual specificity mitogen-activated protein kinase kinase 7 (Homo sapiens) (UniProt O14733)
[31] = target: Proto-oncogene tyrosine-protein kinase ROS (Homo sapiens) (UniProt P08922)
[32] = target: Fibroblast growth factor receptor 4 (Homo sapiens) (UniProt P22455)
[33] = tested on: Epidermal growth factor receptor (Homo sapiens), P00533 [G719S]
[34] = target: Cyclin-dependent kinase 11B (Homo sapiens) (UniProt P21127)
[35] = target: Serine/threonine-protein kinase N1 (Homo sapiens) (UniProt Q16512)
[36] = target: Phosphatidylinositol 4,5-bisphosphate 3-kinase catalytic subunit gamma isoform (Homo sapiens) (UniProt P48736)
[37] = target: Dual specificity testis-specific protein kinase 1 (Homo sapiens) (UniProt Q15569)
[38] = tested on: Tyrosine-protein kinase ABL1 (Homo sapiens), P00519 [F317I]
[39] = target: Bone morphogenetic protein receptor type-2 (Homo sapiens) (UniProt Q13873)
[40] = target: Dual specificity mitogen-activated protein kinase kinase 3 (Homo sapiens) (UniProt P46734)
Dual specificity mitogen-activated protein kinase kinase 3 (Homo sapiens), sequence (P46734 whole entry): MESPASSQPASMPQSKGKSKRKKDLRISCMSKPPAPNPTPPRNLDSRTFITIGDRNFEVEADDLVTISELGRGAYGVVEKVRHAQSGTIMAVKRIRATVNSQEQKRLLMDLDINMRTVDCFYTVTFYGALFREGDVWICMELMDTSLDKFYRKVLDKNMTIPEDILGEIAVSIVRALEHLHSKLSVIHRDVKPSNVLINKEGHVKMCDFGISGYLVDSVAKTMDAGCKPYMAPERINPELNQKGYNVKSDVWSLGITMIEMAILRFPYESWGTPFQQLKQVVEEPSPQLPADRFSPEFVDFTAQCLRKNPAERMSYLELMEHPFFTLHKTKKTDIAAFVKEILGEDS

[41] = target: Myosin light chain kinase (Homo sapiens) (UniProt Q32MK0)
[42] = target: Cyclin-dependent kinase 2 homolog (Plasmodium falciparum (isolate 3D7)) (UniProt P61075)
[43] = target: Rho-associated protein kinase 1 (Homo sapiens) (UniProt Q13464)
[44] = target: Insulin receptor (Homo sapiens) (UniProt P06213)
[45] = target: Serine/threonine-protein kinase Nek5 (Homo sapiens) (UniProt Q6P3R8)

`O=C(NCc1ncc(C(F)(F)F)cc1Cl)c1ccc2c(c1)C1(CCS(=O)(=O)CC1)[C@H](C1CC1)N2S(=O)(=O)c1ccc(F)cc1` [BAY-784] was tested, and the residual activity [1] was 76%, the residual activity [2] was 100% and the residual activity [3] was 79%. It also gave a residual activity [4] of 100%, a residual activity [5] of 100% and a residual activity [6] of 100%. It also gave a residual activity [7] of 87%, a residual activity [8] of 96% and a residual activity [9] of 100%. The residual activity [10] was 86%, the residual activity [11] was 100% and the residual activity [12] was 0%. It also gave a residual activity [13] of 78%, a residual activity [14] of 87% and a residual activity [15] of 99%. For the same compound, the residual activity [16] was 92%, the residual activity [17] was 95% and the residual activity [18] was 96%. The residual activity [19] was 84%, the residual activity [20] was 100% and the residual activity [21] was 97%. It also gave a residual activity [22] of 68%, a residual activity [23] of 87% and a residual activity [24] of 54%. The residual activity [25] was 60%, the residual activity [26] was 83% and the residual activity [27] was 96%. The residual activity [28] was 91%, the residual activity [29] was 100% and the residual activity [30] was 72%. The residual activity [31] was 100%, the residual activity [32] was 100% and the residual activity [33] was 92%. It also gave a residual activity [34] of 100%, a residual activity [35] of 100% and a residual activity [36] of 82%. It also gave a residual activity [37] of 91%, a residual activity [38] of 83% and a residual activity [39] of 80%. The residual activity [40] was 71%, the residual activity [41] was 79% and the residual activity [42] was 94%. For the same compound, the residual activity [43] was 94%, the residual activity [44] was 100% and the residual activity [45] was 100%.

Work on `O=C(NCc1ncc(C(F)(F)F)cc1Cl)c1ccc2c(c1)C1(CCS(=O)(=O)CC1)[C@@H](C1CC1)N2S(=O)(=O)c1ccc(F)cc1` [BAY-786] yielded a residual activity [1] of 74%, a residual activity [2] of 100% and a residual activity [3] of 73%. The residual activity [4] was 100%, the residual activity [5] was 100% and the residual activity [6] was 100%. For the same compound, the residual activity [7] was 85%, the residual activity [8] was 76% and the residual activity [9] was 100%. It also gave a residual activity [10] of 82%, a residual activity [11] of 91% and a residual activity [12] of 89%. For the same compound, the residual activity [13] was 100%, the residual activity [14] was 55% and the residual activity [15] was 100%. It also gave a residual activity [16] of 69%, a residual activity [17] of 100% and a residual activity [18] of 94%. The residual activity [19] was 74%, the residual activity [20] was 100% and the residual activity [21] was 100%. For the same compound, the residual activity [22] was 75%, the residual activity [23] was 86% and the residual activity [24] was 61%. It also gave a residual activity [25] of 71%, a residual activity [26] of 70% and a residual activity [27] of 84%. For the same compound, the residual activity [28] was 96%, the residual activity [29] was 87% and the residual activity [30] was 79%. It also gave a residual activity [31] of 100%, a residual activity [32] of 100% and a residual activity [33] of 86%. The residual activity [34] was 100%, the residual activity [35] was 100% and the residual activity [36] was 95%. For the same compound, the residual activity [37] was 85%, the residual activity [38] was 80% and the residual activity [39] was 73%. It also gave a residual activity [40] of 73%, a residual activity [41] of 76% and a residual activity [42] of 97%. It also gave a residual activity [43] of 82%, a residual activity [44] of 100% and a residual activity [45] of 86%.

Source: ChEMBL document CHEMBL4507266, “Data for DCP probe BAY-784” (2021)
